This note sets out measurements from patent publication US9150528B2, “Compound having detrusor muscle-contracting activity and urethral sphincter muscle-relaxing activity” (ONO PHARMACEUTICAL CO., LTD., priority 2009, dated 2015).

SMILES strings stand for the structures.

The subject of data set [1] is normal rats. The experiment in a line: Blood pressures and heart rates in normal rats. The class given is in vivo, rat. The following applies: 0.3 mg/kg, oral. On the procedure:
The blood pressures and heart rates of female Wistar rats were measured in accordance with the following procedure. On the day of measurement, indwelling of catheters for blood pressure•heart rate measurement was carried out under anesthesia with ether. The back of the neck of each rat was incised; a feeding catheter (Atom Medical Corporation) filled with heparinized physiological saline was introduced from the back of the neck; the catheter was inserted into the common carotid artery; and the surgical incision was closed. The measurements were carried out in a Bollmann cage under the conscious state, and the evaluations were carried out after confirming that the individual parameters were stabilized. After confirming the stabilization of blood pressure and heart rate, the test compound which was prepared using injectable water containing equimolar NaOH was orally administered at a dose of 5 mL/kg.
The catheter drawn from the back of the neck was connected to a pressure transducer (DX-200, NIHON KOHDEN CORP.), and the blood pressures and heart rates were measured using an amplifier for pressure measurement (Gould Instrument). The blood pressures and heart rates were recorded using a recorder (LINEARCORDERWR3320, GRAPHTEC). For each individual, rates of increase and decrease in average blood pressure and heart rate before administration and 30, 60, 120, and 180 min after administration were calculated with respect to the values of each individual before administration. Changes in blood pressure and heart rate before and after administration of the test compound were evaluated.

Data set [2] can be described thus: Systemic clearance after intravenous administration. The class given is in vivo. The following applies: plasma, cynomolgus monkey, 0.001 mg/mL/kg. On the procedure: Equimolar sodium hydroxide and injectable distilled water were added to each of the test compounds to prepare a 1 mg/mL aqueous solution. The aqueous solution was diluted with physiological saline until the concentration reached 0.001 mg/mL and was rapidly administered at a dose of 0.001 mg/mL/kg to cynomolgus monkey through the cephalic vein. Via heparinized syringes, 2 min, 5 min, 15 min, 30 min, 1 hr, 2 hr, 4 hr, 6 hr, 8 hr and 24 hr after administration, blood was drawn from the cephalic vein (non-administered sites). After centrifugation, blood plasma was sampled and stored at −80° C. before pretreatment. The blood plasma was pretreated by mixing with acetonitrile and centrifuging to remove proteins followed by measurement by LC/MS/MS. Changes of concentration in blood plasma was analyzed using WinNonlin4.0.1 to evaluate the systemic clearance of the test compound.

In data set [3] the test system is urinary excretion dysfunction models. The experiment in a line: Urinary excretion dysfunction models, maximal urinary flow rate. The class given is in vivo. As to conditions: 60 ng/kg/h continuous intravenous, cynomolgus monkey urinary excretion dysfunction model. From the text: Urinary excretion dysfunction models were constructed in accordance with the following procedure. After anesthesia of cynomolgus monkeys, the region from the suprapubic area to the abdominal area was shaved, followed by fixing in a dorsal position. The shaved region was disinfected and the four legs were fixed. Using an electrosurgical knife, the skin region from the suprapubic area to the umbilical area and the peritoneal membrane were sequentially incised, followed by damage to the pelvic nerve and removal of the uterus. After the surgical operation, viccillin-containing physiological saline was added dropwise to the incised area. The peritoneal membrane and skin of the incised area were sutured with silk threads and disinfected. Viccillin was administered for 7 consecutive days after surgery. Meloxicam was administered once daily for 7 consecutive days to manage pain in the perioperative period.
The cynomolgus monkeys were seated on monkey chairs, followed by retention of the hands and legs with strings. Injectable water was administered orally, and physiological saline and the test compound (60 ng/kg/h) were continuously administered intravenously to allow urination freely. The maximal urinary flow rate was measured using a urine weighing sensor.

As to `C=CCC[C@](C)(O)C/C=C/[C@H]1CCC(=O)[C@@H]1CCSc1nc(C(=O)O)cs1` [Comparative compound D, 2-[(2-{(1R,2R)-2-[(1E,4S)-4-hydroxy-4-methyl-1,7-octadien-1-yl]-5-oxocyclopentyl}ethyl)thio]-1,3-thiazole-4-carboxylic acid], in data set [1], the “effect on the blood pressure” value is on record as “tendency to decrease” and the “increase in heart rate” value is reported as “about 20%”. The molecule also yielded a clearance in data set [2] of 23.9 mL/min/kg. In data set [3], the “improvement in maximal urinary flow rate over the vehicle group” value is recorded as 36%.
